Read-outs that look alike come from different tables or passages of the source.
Target: recombinant HCV NS5B (HCV RNA-dependent RNA polymerase) (Hepatitis C virus genotype 1b, UniProt P26663)
Assay: biochemical
[1] = HCV polymerase activity, list of compounds of Example 27, read-out: IC50 (polymerase activity)
[2] = related polymerase activity (Example 27 list), read-out: IC50

Chain of recombinant HCV NS5B (HCV RNA-dependent RNA polymerase) (P26663 2420-3010 limits assumed): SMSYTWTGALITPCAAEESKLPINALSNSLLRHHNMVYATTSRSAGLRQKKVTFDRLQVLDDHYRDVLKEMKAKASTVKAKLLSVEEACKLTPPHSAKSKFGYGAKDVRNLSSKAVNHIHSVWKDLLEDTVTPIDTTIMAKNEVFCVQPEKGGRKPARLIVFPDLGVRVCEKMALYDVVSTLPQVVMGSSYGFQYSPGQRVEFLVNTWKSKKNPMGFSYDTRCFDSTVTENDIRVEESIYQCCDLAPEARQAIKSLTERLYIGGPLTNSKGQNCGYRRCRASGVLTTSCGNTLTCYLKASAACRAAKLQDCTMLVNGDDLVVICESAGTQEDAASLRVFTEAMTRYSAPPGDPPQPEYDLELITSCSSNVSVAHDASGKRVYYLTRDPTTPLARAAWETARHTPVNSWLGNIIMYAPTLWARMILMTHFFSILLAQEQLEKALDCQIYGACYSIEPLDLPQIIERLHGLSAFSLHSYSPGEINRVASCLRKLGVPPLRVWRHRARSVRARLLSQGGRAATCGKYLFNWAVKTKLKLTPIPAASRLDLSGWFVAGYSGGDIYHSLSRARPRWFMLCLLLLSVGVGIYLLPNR

SMILES | IC50 [1] | IC50 [2]
O=C(O)c1sc(-c2ccccc2)cc1N(CC1CCN(C(=O)OCc2ccccc2)CC1)C(=O)c1ccc(Cl)cc1Cl [Compound 508, 4-{[(2-CARBOXY-5-PHENYL-THIOPHEN-3- YL)-(2,4-DICHLORO-BENZOYL)-AMINO]- METHYL}-PIPERIDINE-1-CARBOXYLIC ACID BENZYL ESTER] | < 5 µM | –
CC(C)(C)c1ccc(CN(C(=O)CC2CCCC2)c2cc(-c3ccccc3)sc2C(=O)O)cc1 [Compound 442, 3-[(4-TERT-BUTYL-BENZYL)-(2- CYCLOPENTYL-ACETYL)-AMINO]-5- PHENYL-THIOPHENE-2-CARBOXYLIC ACID] | < 5 µM | –
CC(C)N(C(=O)c1ccc(Cl)cc1Cl)c1cc(-c2ccc3[nH]ccc3c2)sc1C(=O)O [Compound 488, 3-[(2,4-DICHLORO-BENZOYL)- ISOPROPYL-AMINO]-5-(1H-INDOL-5-YL)- THIOPHENE-2-CARBOXYLIC ACID] | < 5 µM | –
CCN(C(=O)c1ccc(C)cc1)c1cc(-c2ccccc2)sc1C(=O)O [Compound 185, 3-[ETHYL-(4-METHYL-BENZOYL)-AMINO]-5-PHENYL-THIOPHENE-2-CARBOXYLIC ACID] | – | < 5 µM
Cc1ccccc1S(=O)(=O)Nc1cc(-c2ccc(CO)cc2)sc1C(=O)O [Compound 125, 5-(4-HYDROXYMETHYL-PHENYL)-3-(TOLUENE-2-SULFONYLAMINO)-THIOPHENE-2-CARBOXYLIC ACID] | – | < 5 µM
Cc1ccc(S(=O)(=O)Nc2cc(-c3ccccc3)sc2C(=O)NCC(=O)O)cc1 [Compound 551, {[5-PHENYL-3-(TOLUENE-4- SULFONYLAMINO)-THIOPHENE-2- CARBONYL]-AMINO}-ACETIC ACID] | 5 to 20 µM | –
CN(C(=O)c1ccc(C(F)(F)F)c(F)c1F)c1cc(-c2ccccc2)sc1C(=O)O [Compound 278, 3-[(2,3-DIFLUORO-4-TRIFLUOROMETHYL-BENZOYL)-METHYL-AMINO]-5-PHENYL-THIOPHENE-2-CARBOXYLIC ACID] | – | 5 to 20 µM
Cc1ccccc1S(=O)(=O)Nc1cc(-c2ccccc2F)sc1C(=O)O [Compound 101, 5-(2-FLUORO-PHENYL)-3-(TOLUENE-2-SULFONYLAMINO)-THIOPHENE-2-CARBOXYLIC ACID] | – | < 5 µM
COC(=O)c1sc(-c2ccccc2)cc1N(C(=O)c1ccc(Cl)cc1Cl)C(C)C [Compound 287, 3-[(2,4-DICHLORO-BENZOYL)-ISOPROPYL-AMINO]-5-PHENYL-THIOPHENE-2-CARBOXYLIC ACID METHYL ESTER] | – | 5 to 20 µM
Cc1ccccc1S(=O)(=O)Nc1cc(-c2ccccc2O)sc1C(=O)O [Compound 217, 5-(2-HYDROXY-PHENYL)-3-(TOLUENE-2-SULFONYLAMINO)-THIOPHENE-2-CARBOXYLIC ACID] | – | 5 to 20 µM
Cc1cc(S(=O)(=O)Nc2cc(-c3ccccc3)sc2C(N)=O)c(C)cc1Cl [Compound 580, 3-(4-CHLORO-2,5 DIMETHYL- BENZENESULFONYLAMINO)-5-PHENYL- THIOPHENE-2-CARBOXYLIC ACID AMIDE] | < 5 µM | –
CC1CN(C(=O)OCc2ccccc2)CCC1N(C(=O)c1ccc(Cl)cc1Cl)c1cc(-c2ccccc2)sc1C(=O)O (stereo not drawn) [Compound 533, 4-[(2-CARBOXY-5-PHENYL-THIOPHEN-3- YL)-(2,4-DICHLORO-BENZOYL)-AMINO]-3- METHYL- PIPERIDINE-1-CARBOXYLIC ACID BENZYL ESTER] | < 5 µM | –
Cc1ccc(C(=O)N(Cc2ccc([N+](=O)[O-])cc2)c2cc(-c3ccccc3)sc2C(=O)O)cc1 [Compound 342, 3-[(4-METHYL-BENZOYL)-(4-NITRO- BENZYL)-AMINO]-5-PHENYL-THIOPHENE- 2-CARBOXYLIC ACID] | – | < 5 µM
Cc1ccc(S(=O)(=O)Nc2cc(-c3ccc(S(C)(=O)=O)cc3)sc2C(=O)O)c(C)c1 [Compound 321, 3-(2,4-DIMETHYL- BENZENESULFONYLAMINO)-5-(4- METHANESULFONYL-PHENYL)- THIOPHENE-2-CARBOXYLIC ACID] | – | < 5 µM
C=CCN(C(=O)Cc1c(Cl)cccc1Cl)c1cc(-c2ccccc2)sc1C(=O)O [Compound 353, 3-{ALLYL-[2-(2,6-DICHLORO-PHENYL)- ACETYL]-AMINO}-5-PHENYL-THIOPHENE- 2-CARBOXYLIC ACID] | – | 5 to 20 µM
O=C(O)c1sc(-c2ccccc2)cc1NS(=O)(=O)c1cnc(Cl)c(Br)c1 [Compound 36, 3-(5-BROMO-6-CHLORO-PYRIDINE-3-SULFONYLAMINO)-5-PHENYL-THIOPHENE-2-CARBOXYLIC ACID] | – | > 20 µM
Cc1ccccc1S(=O)(=O)Nc1cc(-c2cccc(N)c2)sc1C(=O)O [Compound 164, 5-(3-AMINO-PHENYL)-3-(TOLUENE-2-SULFONYLAMINO)-THIOPHENE-2-CARBOXYLIC ACID] | – | 5 to 20 µM
C=Cc1ccccc1S(=O)(=O)Nc1cc(-c2ccccc2)sc1C(=O)O [Compound 137, 5-PHENYL-3-(2-VINYL-BENZENESULFONYLAMINO)-THIOPHENE-2-CARBOXYLIC ACID] | – | 5 to 20 µM
CC(C)N(C(=O)C1CC=CCC1)c1cc(-c2ccccc2)sc1C(=O)O (stereo not drawn) [Compound 530, 3-[(CYCLOHEX-3-ENECARBONYL)- ISOPROPYL-AMINO]-5-PHENYL- THIOPHENE-2-CARBOXYLIC ACID] | 5 to 20 µM | –
Cc1ccc(C(=O)N(c2cc(-c3ccccc3)sc2C(=O)O)C(C)C)c(C(N)=O)c1 [Compound 474, 3-[(2-CARBAMOYL-4-METHYL-BENZOYL)- ISOPROPYL-AMINO]-5-PHENYL- THIOPHENE-2-CARBOXYLIC ACID] | 5 to 20 µM | –

SMILES | IC50 [1] | IC50 [2]
CC(C)N(C(=O)C12CC3CC(CC(C3)C1)C2)c1cc(-c2ccccc2)sc1C(=O)O [Compound 424, 3-[(ADAMANTANE-1-CARBONYL)- ISOPROPYL-AMINO]-5-PHENYL- THIOPHENE-2-CARBOXYLIC ACID] | > 20 µM | –
O=C(Nc1cc(Cl)nc(Cl)c1)Nc1cc(-c2ccccc2)sc1C(=O)O [Compound 28, 3-[3-(2,6-DICHLORO-PYRIDIN-4-YL)-UREIDO]-5-PHENYL-THIOPHENE-2-CARBOXYLIC ACID] | – | < 5 µM
Cc1ccc(S(=O)(=O)Nc2cc(-c3ccccc3)sc2C(=O)NC2CCC2)cc1 [Compound 567, 5-PHENYL-3-(TOLUENE-4- SULFONYLAMINO)-THIOPHENE-2- CARBOXYLIC ACID CYCLOBUTYLAMIDE] | 5 to 20 µM | –
Cc1ccccc1S(=O)(=O)Nc1cc(-c2ccc(S(C)(=O)=O)cc2)sc1C(=O)O [Compound 89, 5-(4-METHANESULFONYL-PHENYL)-3-(TOLUENE-2-SULFONYLAMINO)-THIOPHENE-2-CARBOXYLIC ACID] | – | < 5 µM
O=C(O)c1sc(-c2ccccc2)cc1NS(=O)(=O)c1cc(Cl)sc1Cl [Compound 55, 3-(2,5-DICHLORO-THIOPHENE-3-SULFONYLAMINO)-5-PHENYL-THIOPHENE-2-CARBOXYLIC ACID] | – | 5 to 20 µM
CC(C)N(C(=O)c1ccc(Cl)cc1I)c1cc(-c2ccccc2)sc1C(=O)O [Compound 310, 3-[(4-CHLORO-2-IODO-BENZOYL)- ISOPROPYL-AMINO]-5-PHENYL- THIOPHENE-2-CARBOXYLIC ACID] | – | < 5 µM
CC1CCC(C(=O)N(c2ccncc2)c2cc(-c3ccccc3)sc2C(=O)O)CC1 (stereo not drawn) [Compound 525, 3-[(4-METHYL- CYCLOHEXANECARBONYL)-PYRIDIN-4- YL-AMINO]-5-PHENYL-THIOPHENE-2- CARBOXYLIC ACID] | < 5 µM | –
O=C(O)c1sc(-c2ccccc2)cc1NS(=O)(=O)c1cc(F)ccc1F [Compound 53, 3-(2,5-DIFLUORO-BENZENESULFONYLAMINO)-5-PHENYL-THIOPHENE-2-CARBOXYLIC ACID] | – | < 5 µM
CCOC(=O)c1c(C)oc(-c2ccc(Cl)cc2)c1S(=O)(=O)Nc1cc(-c2ccccc2)sc1C(=O)O [Compound 144, 4-(2-CARBOXY-5-PHENYL-THIOPHEN-3-YLSULFAMOYL)-5-(4-CHLORO-PHENYL)-2-METHYL-FURAN-3-CARBOXYLIC ACID ETHYL ESTER] | – | 5 to 20 µM
Cc1ccc(C(=O)N(Cc2ccccc2Cl)c2cc(-c3ccccc3)sc2C(=O)O)cc1 [Compound 345, 3-[(2-CHLORO-BENZYL)-(4-METHYL- BENZOYL)-AMINO]-5-PHENYL- THIOPHENE-2-CARBOXYLIC ACID] | – | < 5 µM
COc1ccccc1-c1cc(NS(=O)(=O)c2ccccc2C)c(C(=O)O)s1 [Compound 104, 5-(2-METHOXY-PHENYL)-3-(TOLUENE-2-SULFONYLAMINO)-THIOPHENE-2-CARBOXYLIC ACID] | – | 5 to 20 µM
O=C(O)c1sc(-c2ccccc2)cc1NS(=O)(=O)c1ccccc1[N+](=O)[O-] [Compound 45, 3-(2-NITRO-BENZENESULFONYLAMINO)-5-PHENYL-THIOPHENE-2-CARBOXYLIC ACID] | – | < 5 µM
Cc1ccc(C)c(S(=O)(=O)Nc2cc(-c3ccccc3)sc2C(=O)O)c1 [Compound 21, 3-(2,5-DIMETHYL-BENZENESULFONYLAMINO)-5-PHENYL-THIOPHENE-2-CARBOXYLIC ACID] | – | 5 to 20 µM
Cc1ccc(C(=O)N(C)c2cc(-c3ccc(C#N)cc3)sc2C(=O)O)cc1 [Compound 193, 5-(4-CYANO-PHENYL)-3-[METHYL-(4-METHYL-BENZOYL)-AMINO]-THIOPHENE-2-CARBOXYLIC ACID] | – | 5 to 20 µM
O=C(O)c1sc(-c2ccccc2)cc1NC(=O)N1CCN(c2ccc([N+](=O)[O-])cc2)CC1 [Compound 114, 3-{[4-(4-NITRO-PHENYL)-PIPERAZINE-1-CARBONYL]-AMINO}-5-PHENYL-THIOPHENE-2-CARBOXYLIC ACID] | – | < 5 µM
CC(C)N(C(=O)c1ccc(Cl)cc1Cl)c1cc(C2CCNCC2)sc1C(=O)O [Compound 526, 3-[(2,4-DICHLORO-BENZOYL)- ISOPROPYL-AMINO]-5-PIPERIDIN-4-YL- THIOPHENE-2-CARBOXYLIC ACID; COMPOUND WITH TRIFLUORO-ACETIC ACID] | > 20 µM | –
Cc1ccccc1S(=O)(=O)Nc1cc(-c2ccc(NS(C)(=O)=O)cc2)sc1C(=O)O [Compound 369, 5-(4-METHANESULFONYLAMINO- PHENYL)-3- (TOLUENE-2-SULFONYLAMINO)- THIOPHENE- 2-CARBOXYLIC ACID] | – | 5 to 20 µM
Cc1ccccc1S(=O)(=O)Nc1cc(-c2ccc(Cl)c(Cl)c2)sc1C(=O)O [Compound 85, 5-(3,4-DICHLORO-PHENYL)-3-(TOLUENE-2-SULFONYLAMINO)-THIOPHENE-2-CARBOXYLIC ACID] | – | 5 to 20 µM
CC(C)CC(=O)N(Cc1ccc([N+](=O)[O-])cc1)c1cc(-c2ccccc2)sc1C(=O)O [Compound 419, 3-[(3-METHYL-BUTYRYL)-(4-NITRO- BENZYL)-AMINO]-5-PHENYL-THIOPHENE- 2-CARBOXYLIC ACID] | < 5 µM | –

Reference: US6881741B2 (ViroChem Pharma Inc., priority 2001, dated 2005)
